Laboratory results from US10449168B2 (The University of Toledo, priority 2015, dated 2019).
“Also recorded” adds a separate entry of the source.

What was measured:
Type in all cases: biochemical
[1] = target: Vibrio cholerae aspartate semialdehyde dehydrogenase (vcASADH); test: vcASADH kinetic assay: reverse direction, NADPH absorbance at 340 nm; Ki from Dixon plot assuming competitive inhibition against ASA; conditions: pH 8.6, r.t., 0.3 mM ASA, 1.5 mM NADP, 20 mM phosphate
[2] = target: T1, Streptococcus pneumoniae aspartate semialdehyde dehydrogenase (spASADH) (Streptococcus pneumoniae, UniProt Q8DQ00); test: spASADH kinetic assay: reverse direction, NADPH absorbance at 340 nm; Ki from Dixon plot assuming competitive inhibition against ASA; conditions: pH 8.6, r.t., 0.15 mM ASA, 1.5 mM NADP, 20 mM phosphate
T1 construct: homodimer from general knowledge
T1 sequence (Q8DQ00 1-358): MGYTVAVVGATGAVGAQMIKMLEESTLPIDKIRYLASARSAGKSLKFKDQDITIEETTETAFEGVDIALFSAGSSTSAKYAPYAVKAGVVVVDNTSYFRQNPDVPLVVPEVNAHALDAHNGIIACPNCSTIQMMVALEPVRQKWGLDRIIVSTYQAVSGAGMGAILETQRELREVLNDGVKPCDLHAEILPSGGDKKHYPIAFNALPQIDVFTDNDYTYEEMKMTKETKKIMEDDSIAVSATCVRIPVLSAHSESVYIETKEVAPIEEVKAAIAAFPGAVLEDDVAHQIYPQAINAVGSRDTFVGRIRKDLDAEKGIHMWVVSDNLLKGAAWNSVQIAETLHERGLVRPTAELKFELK

[3] = target: Streptococcus pneumoniae aspartate semialdehyde dehydrogenase (spASADH) (Streptococcus pneumoniae, UniProt Q8DQ00); test: biochemical; conditions: for inhibition / binding affinity for spASADH (in words): relative to parent or neighbouring derivative
[4] = target: T2, Vibrio cholerae aspartate semialdehyde dehydrogenase (vcASADH) (Vibrio cholerae serotype O1, UniProt P23247); test: biochemical; conditions: for inhibition / binding affinity for vcASADH (in words): relative to parent or neighbouring derivative
T2 construct: made in house

[5] = competitive vs ASA, 0.15 mM ASA, pH 8.6, read-out: Ki for spASADH

T2 sequence (P23247 whole entry): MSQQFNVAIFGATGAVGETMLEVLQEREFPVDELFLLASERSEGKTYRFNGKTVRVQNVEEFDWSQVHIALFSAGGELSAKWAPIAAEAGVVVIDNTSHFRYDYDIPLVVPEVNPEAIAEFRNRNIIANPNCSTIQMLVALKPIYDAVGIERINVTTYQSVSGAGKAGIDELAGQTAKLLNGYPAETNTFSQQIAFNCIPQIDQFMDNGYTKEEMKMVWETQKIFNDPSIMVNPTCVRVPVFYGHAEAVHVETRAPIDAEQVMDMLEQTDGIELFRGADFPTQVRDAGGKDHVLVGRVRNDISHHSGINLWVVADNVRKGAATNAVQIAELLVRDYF

Row | Compound | Ki ([1]; FIG. 5, Table 2) [µM] | Ki ([2]; FIG. 5, Table 2) [µM] | inhibition / binding affinity for spASADH (in words) [3] | Ki ([1]; FIG. 4, Table 1) [µM] | Ki ([2]; FIG. 4, Table 1) [µM] | other results
1 | O=C(O)CN(Cc1ccc(OC(F)F)cc1)Cc1ccc(C(=O)O)c(C(=O)O)c1 [Compound 30, N-(4-difluoromethoxybenzyl)-N-carboxymethyl-3,4-dicarboxybenzylamine] | 698 ± 44 | 54 ± 5 | reversed this improvement | – | – | –
2 | O=C(O)CN(Cc1cccc(C(F)(F)F)c1)Cc1ccc(C(=O)O)c(C(=O)O)c1 [Compound 25, N-(3-trifluoromethylbenzyl)-N-carboxymethyl-3,4-dicarboxybenzylamine] | 678 ± 36 | 441 ± 27 | did not alter the affinity | – | – | inhibition / binding affinity for vcASADH (in words) [4]: did not alter the affinity
3 | O=C(O)CCN(Cc1ccc(Br)cc1)Cc1ccc(C(=O)O)c(C(=O)O)c1 [Compound 35, N-(4-bromobenzyl)-N-carboxyethyl-3,4-dicarboxybenzylamine] | – | 3600 ± 230 | substantial affinity loss | – | – | –
4 | CN(CC(=O)O)Cc1cccc(C(=O)O)c1C(=O)O [Compound 9, N-methyl, N-carboxymethyl-2,3-dicarboxybenzylamine] | – | – | – | – | – | inhibition / binding affinity for vcASADH (in words) [4]: no inhibition; Ki [3, 5]: 1800 µM
5 | Cc1ccccc1CN(CC(=O)O)Cc1ccc(C(=O)O)c(C(=O)O)c1 [Compound 21, N-(2-methylbenzyl)-N-carboxymethyl-3,4-dicarboxybenzylamine] | 721 ± 46 | 524 ± 27 | did not yield any improvement in affinity | – | – | –
6 | CC(=O)N(CC(=O)O)Cc1ccc(C(=O)O)c(C(=O)O)c1 [Compound 37, N-acetal-N-carboxymethyl-3,4-dicarboxybenzylamine] | – | – | – | 655 ± 51 | 276 ± 16 | –
7 | O=C(O)CN(Cc1ccc(C(F)(C(F)(F)F)C(F)(F)F)cc1)Cc1ccc(C(=O)O)c(C(=O)O)c1 [Compound 34, N-(4-(2-perfluoropropyl))-N-carboxymethyl-3,4-dicarboxybenzylamine] | 639 ± 37 | – | low micromolar K value | – | – | Ki [3]: 9 µM
8 | C[C@H](NCc1ccc(C(=O)O)c(C(=O)O)c1)C(=O)O [Compound 5, N-((2-methyl)carboxymethyl)-3,4-dicarboxybenzylamine] | – | – | no appreciable effect on the binding affinity; also recorded: did not lead to enhanced affinity | 609 ± 23 | 296 ± 26 | inhibition / binding affinity for vcASADH (in words) [4]: no appreciable effect on the binding affinity
9 | O=C(O)CN(CCN1CCOCC1)Cc1ccc(C(=O)O)c(C(=O)O)c1 [Compound 16, N-(ethylmorpholino)-N-carboxymethyl-3,4-dicarboxybenzylamine] | – | – | only a slight improvement | – | – | –
10 | Cc1cccc(CN(CC(=O)O)Cc2ccc(C(=O)O)c(C(=O)O)c2)c1 [Compound 22, N-(3-methylbenzyl)-N-carboxymethyl-3,4-dicarboxybenzylamine] | 690 ± 41 | 430 ± 22 | did not yield any improvement in affinity | – | – | –
11 | O=C(O)CCNCc1ccc(C(=O)O)c(C(=O)O)c1 [Compound 4, N-carboxyethyl-3,4-dicarboxybenzylamine] | – | – | substantial affinity loss | – | – | inhibition / binding affinity for vcASADH (in words) [4]: did not show appreciable inhibition; Ki [3, 5]: 2400 µM
12 | O=C(O)CNCc1ccc(C(=O)O)c(C(=O)O)c1 [Compound 3, N-carboxymethyl-3,4-dicarboxybenzylamine] | – | – | two-fold stronger inhibitor; also recorded: high millimolar inhibitor | – | 246 ± 20 | Ki [4]: 500 µM; inhibition / binding affinity for vcASADH (in words) [4]: high millimolar inhibitor
13 | O=C(O)CN(Cc1ccc(C=Cc2ccccc2)cc1)Cc1ccc(C(=O)O)c(C(=O)O)c1 [Compound 38, N-((4-(2-benzyl)vinyl)benzyl)-N-carboxymethyl-3,4-dicarboxybenzylamine] | 1100 ± 200 | – | – | – | – | –
14 | O=C(O)CN(Cc1ccccc1)Cc1ccc(C(=O)O)c(C(=O)O)c1 [Compound 13, N-benzyl, N-carboxymethyl-3,4-dicarboxybenzylamine] | – | – | – | 696 ± 33 | 297 ± 14 | –
15 | O=C(O)CN(Cc1ccc(C(=O)O)c(C(=O)O)c1)c1ccc2ccccc2c1 [Compound 15, N-(2-naphthyl)-N-carboxymethyl-3,4-dicarboxybenzylamine] | – | – | slightly worse inhibition | 724 ± 47 | 329 ± 22 | –
16 | N-acetonitrile, N-carboxymethyl-3,4-dicarboxybenzylamine [Compound 12] | – | – | – | 498 ± 27 | 220 ± 14 | –
17 | NC(=O)c1ccc(CN(CC(=O)O)Cc2ccc(C(=O)O)c(C(=O)O)c2)cc1 [Compound 32, N-(4-carboxamidebenzyl)-N-carboxymethyl-3,4-dicarboxybenzylamine] | 649 ± 25 | 229 ± 32 | – | – | – | loss of affinity ([3]; carboxamide vs p-carboxyl derivative (31)): 3 fold
18 | O=C(O)CN(Cc1ccc(C(F)(F)F)cc1)Cc1ccc(C(=O)O)c(C(=O)O)c1 [Compound 26, N-(4-trifluoromethylbenzyl)-N-carboxymethyl-3,4-dicarboxybenzylamine] | 628 ± 48 | – | two-fold additional improvement in binding affinity | – | – | –
19 | O=C(O)CN(Cc1ccc(C(=O)O)c(C(=O)O)c1)c1ccc(-c2ccccc2)cc1 [Compound 17, N-(4-biphenyl)-N-carboxymethyl-3,4-dicarboxybenzylamine] | – | – | improved binding affinity | 634 ± 29 | – | improved inhibition of spASADH relative to the parent benzyl derivative ([3]; relative to parent benzyl derivative): 25 fold
20 | O=C(O)CN(Cc1ccc(OC(F)(F)F)cc1)Cc1ccc(C(=O)O)c(C(=O)O)c1 [Compound 29, N-(4-trifluoromethoxybenzyl)-N-carboxymethyl-3,4-dicarboxybenzylamine] | 663 ± 39 | 36 ± 6 | two-fold additional improvement in binding affinity | – | – | –
21 | C=CCN(CC(=O)O)Cc1ccc(C(=O)O)c(C(=O)O)c1 [Compound 11, N-allyl, N-carboxymethyl-3,4-dicarboxybenzylamine] | – | – | – | 663 ± 36 | 303 ± 22 | –
22 | Cc1ccc(CN(CC(=O)O)Cc2ccc(C(=O)O)c(C(=O)O)c2)cc1 [Compound 23, N-(4-methylbenzyl)-N-carboxymethyl-3,4-dicarboxybenzylamine] | 608 ± 42 | 63 ± 7 | – | – | – | inhibition / binding affinity for vcASADH (in words) [4]: did not show any improved affinity
23 | CC(C)(C)c1ccc(CN(CC(=O)O)Cc2ccc(C(=O)O)c(C(=O)O)c2)cc1 [Compound 33, N-(4-t-butylbenzyl)-N-carboxymethyl-3,4-dicarboxybenzylamine] | 648 ± 32 | – | additional two-fold improvement | – | – | selectivity for spASADH relative to vcASADH ([3]; Gram-positive spASADH over Gram-negative vcASADH): over 40 fold; Ki [3, 5]: 16 µM
24 | O=C(O)CN(Cc1ccc(C(F)(F)F)cc1)Cc1ccc(C(=O)O)c(C(=O)O)c1 [Compound 36, N-(4-trifluoromethylbenzyl)-N-carboxymethyl-3,4-dicarboxybenzylamine] | – | 3800 ± 220 | substantial affinity loss | – | – | –
25 | N-(1-naphthyl)-N-carboxymethyl-3,4-dicarboxybenzylamine [Compound 14] | – | – | – | 749 ± 54 | 396 ± 42 | –
26 | O=C(O)CN(Cc1ccc(C(=O)O)c(C(=O)O)c1)Cc1cccc2ccccc12 [Compound 14] | – | – | slightly worse inhibition | – | – | –
27 | O=C(O)CN(Cc1cccc(Br)c1)Cc1ccc(C(=O)O)c(C(=O)O)c1 [Compound 19, N-(3-bromobenzyl)-N-carboxymethyl-3,4-dicarboxybenzylamine] | 665 ± 37 | 442 ± 29 | did not yield any improvement in affinity | – | – | –
28 | O=C(O)CN(Cc1ccc(C(=O)O)cc1)Cc1ccc(C(=O)O)c(C(=O)O)c1 [Compound 31, N-(4-carboxybenzyl)-N-carboxymethyl-3,4-dicarboxybenzylamine] | 635 ± 55 | 72 ± 7 | comparable affinity to that observed for the p-methylbenzyl derivative (23) | – | – | –
29 | O=C(O)CN(Cc1ccc(C(=O)O)c(C(=O)O)c1)Cc1ccccc1Br [Compound 18, N-(2-bromobenzyl)-N-carboxymethyl-3,4-dicarboxybenzylamine] | 737 ± 49 | 529 ± 38 | did not yield any improvement in affinity | – | – | –
30 | CN(CC(=O)O)Cc1ccc(C(=O)O)c(C(=O)O)c1 [Compound 10, N-methyl, N-carboxymethyl-3,4-dicarboxybenzylamine] | – | – | – | 675 ± 54 | 296 ± 36 | –
